Laboratory results as given in article PMC5607274, “An iterative compound screening contest method for identifying target protein inhibitors using the tyrosine-protein kinase Yes” (Scientific Reports, 2017).

Molecular target: T1, human recombinant Yes [a.a. 2–543 (end)] (Homo sapiens, UniProt P07947)
T1 construct: human recombinant Yes [a.a; 2–543 (end)]; purchased BPS Bioscience 40488
Assay: ADP-Glo kinase assay, inhibition rates of Yes phosphorylation activity (first and second screening)
Format: biochemical
Settings: 10 μmol L−1 compound; for First screening IR (inhibition rate): mean of n = 4 wells
Procedure, shortened: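 ADP-Glo luminescence measured inhibition of human recombinant Yes (a.a. 2–543) phosphorylation activity. In the first screen, each compound ran in 4 wells and inhibition rates were averaged. The second screen retested hits as compounds dissolved from fresh powder.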

T1 sequence (P07947 2-543): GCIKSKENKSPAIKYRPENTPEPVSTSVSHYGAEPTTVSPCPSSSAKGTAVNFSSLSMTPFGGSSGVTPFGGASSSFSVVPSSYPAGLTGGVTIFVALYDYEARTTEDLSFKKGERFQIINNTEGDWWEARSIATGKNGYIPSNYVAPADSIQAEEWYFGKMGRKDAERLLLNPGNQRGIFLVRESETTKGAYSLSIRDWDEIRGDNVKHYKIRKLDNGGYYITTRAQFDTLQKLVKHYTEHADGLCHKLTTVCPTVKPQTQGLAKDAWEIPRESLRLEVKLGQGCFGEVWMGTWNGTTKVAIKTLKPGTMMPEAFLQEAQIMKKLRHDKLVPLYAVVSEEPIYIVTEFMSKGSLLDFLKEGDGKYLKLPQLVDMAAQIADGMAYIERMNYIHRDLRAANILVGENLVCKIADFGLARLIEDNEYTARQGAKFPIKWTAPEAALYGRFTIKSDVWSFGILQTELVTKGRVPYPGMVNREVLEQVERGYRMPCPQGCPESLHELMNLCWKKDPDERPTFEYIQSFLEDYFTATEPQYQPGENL

| First screening IR (inhibition rate) [%] | Second screening IR (inhibition rate) (second screening, dissolved from fresh powder, n = 4) [%] | SMILES |
| --- | --- | --- |
| 11 |  | CN(C)S(=O)(=O)c1ccc(S(N)(=O)=O)cc1 [Compound Z45415603] |
| 9 |  | CCN(C1CCS(=O)(=O)C1)S(=O)(=O)c1ccc(C)cc1 (stereo not shown) [Compound Z45467092] |
| 12 |  | CCN(C1CCS(=O)(=O)C1)S(=O)(=O)c1ccc(Cl)c(Cl)c1 (stereo not shown) [Compound Z45467101] |
| 10 |  | CCN(C1CCS(=O)(=O)C1)S(=O)(=O)c1ccc(C)c(C)c1 (stereo not shown) [Compound Z45467115] |
| 2 |  | COc1ccc(NC(C)=O)cc1S(=O)(=O)N(C)Cc1cccc(OC)c1OC [Compound Z45476409] |
| 1 |  | CC(C)CN(C1CCS(=O)(=O)C1)S(=O)(=O)c1ccc(Cl)cc1 (stereo not shown) [Compound Z45480638] |
| 1 |  | CC(C)CN(C1CCS(=O)(=O)C1)S(=O)(=O)c1ccc(Cl)c(Cl)c1 (stereo not shown) [Compound Z45480661] |
| 3 |  | CCN(CC)S(=O)(=O)c1ccc(S(=O)(=O)N(C)C)cc1 [Compound Z45516173] |
| 27 |  | CC1CCCC(NC(=S)Nc2cccc(S(=O)(=O)N(C)C)c2)C1C (stereo not shown) [Compound Z45768220] |
| 13 |  | CCN(CC)S(=O)(=O)c1ccc(OC)c(NC(=S)NCc2ccccc2)c1 [Compound Z45779271] |

Second part, the compound before the results:

| SMILES | First screening IR (inhibition rate) [%] | Second screening IR (inhibition rate) (second screening, dissolved from fresh powder, n = 4) [%] |
| --- | --- | --- |
| NS(=O)(=O)c1ccc(S(=O)(=O)N2CCCC2)cc1 [Compound Z45415601] | -6 |  |
| CCN(CC)S(=O)(=O)c1ccc(S(N)(=O)=O)cc1 [Compound Z45415602] | 1 |  |
| CCCN(S(=O)(=O)c1ccc(C)cc1)S(=O)(=O)c1ccc(Cl)cc1 [Compound Z45422005] | 3 |  |
| CCCN(S(=O)(=O)c1ccc(Cl)cc1)S(=O)(=O)c1ccc(C)cc1C [Compound Z45422032] | 5 |  |
| CCN(C1CCS(=O)(=O)C1)S(=O)(=O)c1ccc(Br)cc1 (stereo not shown) [Compound Z45467079] | 4 |  |
| CCN(C1CCS(=O)(=O)C1)S(=O)(=O)c1ccc(Br)cc1Cl (stereo not shown) [Compound Z45467139] | 2 |  |
| CCN(C1CCS(=O)(=O)C1)S(=O)(=O)c1c(C)c(C)c(C)c(C)c1C (stereo not shown) [Compound Z45467174] | 8 |  |
| CCN(C1CCS(=O)(=O)C1)S(=O)(=O)c1c(C)noc1C (stereo not shown) [Compound Z45467189] | -5 |  |
| CCCN(C1CCS(=O)(=O)C1)S(=O)(=O)c1ccccc1Cl (stereo not shown) [Compound Z45480819] | -1 |  |
| CC(NS(=O)(=O)c1ccc(C(C)(C)C)cc1)c1ccc(-n2ccnc2)cc1 (stereo not shown) [Compound Z45488256] | 12 |  |
| CC(C)c1ccc(S(=O)(=O)NC(C)c2ccc(-n3ccnc3)cc2)cc1 (stereo not shown) [Compound Z45488257] | -8 |  |
| O=S(=O)(c1c(Cl)cccc1Cl)N1CCN(Cc2nc3ccccc3s2)CC1 [Compound Z45503858] | 3 |  |
| CCN(CC)S(=O)(=O)c1ccc(S(=O)(=O)N(C)C(C)C)cc1 [Compound Z45539789] | 11 |  |
| Cc1ccc(S(=O)(=O)N(C)S(=O)(=O)c2ccc(C#N)cc2)cc1 [Compound Z45549760] | 3 |  |
| Cc1n[nH]c(C)c1S(=O)(=O)Nc1cccc(/C=C/c2ccccn2)c1 [Compound Z45649828] | 36 | 0 |
| O=S(=O)(Nc1ccc(N2CCOCC2)cc1)c1ccc(Cl)c(C(F)(F)F)c1 [Compound Z45660528] | -2 |  |
| CCCCc1ccc(NC(=S)N2CC3(C)CC2CC(C)(C)C3)cc1 (stereo not shown) [Compound Z45795780] | -6 |  |
